Data set [1] addresses T1, Protein cereblon/Interleukin-1 receptor-associated kinase 3 (Homo sapiens, UniProt Q9Y616+Q96SW2). Put plainly: Protac activity at CRBN/IRAK3 in LPS-induced human THP1 cells assessed as induction of IRAK3 degradation at 1 uM by Western blot analysis relative to control. Format: cell-based. The following applies: THP-1.
Target sequence in this assay (Q96SW2 whole entry, looked up, one chain of several): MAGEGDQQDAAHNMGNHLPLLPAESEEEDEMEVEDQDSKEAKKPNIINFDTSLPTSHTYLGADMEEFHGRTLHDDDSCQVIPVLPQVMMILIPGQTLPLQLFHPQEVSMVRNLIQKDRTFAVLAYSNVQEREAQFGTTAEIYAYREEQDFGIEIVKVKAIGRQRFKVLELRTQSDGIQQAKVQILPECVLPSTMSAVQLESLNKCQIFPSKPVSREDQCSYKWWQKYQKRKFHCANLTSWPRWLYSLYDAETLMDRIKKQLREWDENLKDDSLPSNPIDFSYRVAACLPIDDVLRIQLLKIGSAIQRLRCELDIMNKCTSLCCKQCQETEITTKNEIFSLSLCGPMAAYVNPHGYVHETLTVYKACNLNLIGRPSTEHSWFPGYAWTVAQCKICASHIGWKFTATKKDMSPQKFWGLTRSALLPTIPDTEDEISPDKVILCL
Data set [2] can be described thus: Octanol/buffer partition coefficient, log D of the compound at pH 7.4 by shake-flask method. Format: physicochemical.
The target of data set [3] is T2, Interleukin-1 receptor-associated kinase 3 (Homo sapiens, UniProt Q9Y616).
T2 sequence (Q9Y616 whole entry): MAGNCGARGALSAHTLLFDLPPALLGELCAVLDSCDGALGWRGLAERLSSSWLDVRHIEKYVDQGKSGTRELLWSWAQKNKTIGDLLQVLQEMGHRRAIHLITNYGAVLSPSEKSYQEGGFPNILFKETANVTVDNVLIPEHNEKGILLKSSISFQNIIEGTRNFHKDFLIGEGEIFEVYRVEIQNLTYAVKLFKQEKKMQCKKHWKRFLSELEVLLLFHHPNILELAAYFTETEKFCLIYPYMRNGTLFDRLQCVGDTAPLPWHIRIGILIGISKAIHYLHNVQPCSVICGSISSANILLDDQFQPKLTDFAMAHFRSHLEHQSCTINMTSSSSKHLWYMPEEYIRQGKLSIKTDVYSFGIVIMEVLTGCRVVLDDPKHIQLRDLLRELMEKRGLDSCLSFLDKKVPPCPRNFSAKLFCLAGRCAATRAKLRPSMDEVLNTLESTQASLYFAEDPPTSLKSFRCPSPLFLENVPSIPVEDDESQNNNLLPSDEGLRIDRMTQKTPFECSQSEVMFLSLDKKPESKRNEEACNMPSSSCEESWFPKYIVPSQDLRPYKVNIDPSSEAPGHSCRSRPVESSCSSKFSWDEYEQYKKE
Put plainly: Inhibition of kinase tracer 236 binding to recombinant human full-length GST-tagged IRAK3 expressed in insect cells by Lanthascreen Eu kinase binding assay.

Data set [4] deals with T3, Interleukin-1 receptor-associated kinase 4 (Homo sapiens, UniProt Q9NWZ3).
T3 sequence (Q9NWZ3 whole entry): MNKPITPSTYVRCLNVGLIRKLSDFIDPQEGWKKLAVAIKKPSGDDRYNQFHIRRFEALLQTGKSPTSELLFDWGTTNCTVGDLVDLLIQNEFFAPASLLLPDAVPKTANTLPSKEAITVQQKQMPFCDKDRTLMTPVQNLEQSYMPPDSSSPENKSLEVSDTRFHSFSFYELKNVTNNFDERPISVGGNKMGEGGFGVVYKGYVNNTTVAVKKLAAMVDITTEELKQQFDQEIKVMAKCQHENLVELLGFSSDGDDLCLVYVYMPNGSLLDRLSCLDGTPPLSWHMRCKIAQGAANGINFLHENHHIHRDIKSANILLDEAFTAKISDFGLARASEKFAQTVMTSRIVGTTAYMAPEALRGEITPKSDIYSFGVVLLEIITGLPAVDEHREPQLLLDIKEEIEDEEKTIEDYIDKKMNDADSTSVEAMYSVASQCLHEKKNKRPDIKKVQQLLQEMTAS
Put plainly: Inhibition of recombinant human full-length His-tagged IRAK4 expressed in baculovirus expression system using 5-FAM-IPTSPITTTYFFFKKK-COOH as substrate measured after 240 mins by mobility shift assay.

Data set [5] has as its target T1, Protein cereblon/Interleukin-1 receptor-associated kinase 3. Put plainly: Protac activity at CRBN/IRAK3 in LPS-induced human THP1 cells assessed as induction of IRAK3 degradation at 10 uM by Western blot analysis relative to control. Format: cell-based. The following applies: THP-1.
Target sequence in this assay (Q96SW2 whole entry, looked up, one chain of several): as the sequence (Q96SW2 whole entry, looked up, one chain of several) above
Data set [6] has as its target T4, von Hippel-Lindau disease tumor suppressor/Interleukin-1 receptor-associated kinase 3 (Homo sapiens) (UniProt Q9Y616+P40337). Put plainly: Protac activity at VHL/IRAK3 in LPS-induced human THP1 cells assessed as induction of IRAK3 degradation at 1 uM by Western blot analysis relative to control. Format: cell-based. As to conditions: THP-1.
Data set [7] deals with T4, von Hippel-Lindau disease tumor suppressor/Interleukin-1 receptor-associated kinase 3 (Homo sapiens). Kind of data set: Protac activity at VHL/IRAK3 in LPS-induced human THP1 cells assessed as induction of IRAK3 degradation at 10 uM by Western blot analysis relative to control. Format: cell-based. As to conditions: THP-1.
The target in data set [8] is Interleukin-1 receptor-associated kinase 1 (Homo sapiens, UniProt P51617). Kind of data set: Inhibition of recombinant human N-terminal GST-tagged IRAK1 (194 to 712 residues) expressed in baculovirus expression system using 5-FAM-KKKVSRSGLYRSPSMPENLNRPR-COOH as substrate measured after 240 mins by mobility shift assay.
Interleukin-1 receptor-associated kinase 1, sequence (P51617 whole entry, the tested form may be a part): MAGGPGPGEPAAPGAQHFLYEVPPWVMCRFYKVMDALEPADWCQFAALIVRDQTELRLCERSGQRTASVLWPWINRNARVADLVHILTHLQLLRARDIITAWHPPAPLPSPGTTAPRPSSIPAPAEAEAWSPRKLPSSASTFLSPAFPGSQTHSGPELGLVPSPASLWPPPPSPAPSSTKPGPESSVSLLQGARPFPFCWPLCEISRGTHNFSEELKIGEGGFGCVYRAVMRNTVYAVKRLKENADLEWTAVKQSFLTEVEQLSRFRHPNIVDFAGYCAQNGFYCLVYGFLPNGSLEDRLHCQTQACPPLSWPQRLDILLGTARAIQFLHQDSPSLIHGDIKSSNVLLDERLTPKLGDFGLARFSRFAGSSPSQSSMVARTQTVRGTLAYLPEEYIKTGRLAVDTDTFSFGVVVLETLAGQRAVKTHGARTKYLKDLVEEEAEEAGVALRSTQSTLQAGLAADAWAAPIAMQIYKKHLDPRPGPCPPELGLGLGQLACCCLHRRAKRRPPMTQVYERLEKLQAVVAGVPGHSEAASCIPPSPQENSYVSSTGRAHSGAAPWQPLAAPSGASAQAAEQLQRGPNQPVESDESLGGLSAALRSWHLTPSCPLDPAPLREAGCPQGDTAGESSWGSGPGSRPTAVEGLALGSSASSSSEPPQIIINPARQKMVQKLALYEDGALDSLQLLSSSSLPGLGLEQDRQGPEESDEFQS
Another data set has as its target Protein cereblon (Homo sapiens, UniProt Q96SW2). Put plainly: Inhibition of CRBN (unknown origin).
For data set [9], the target named is T1, Protein cereblon/Interleukin-1 receptor-associated kinase 3. Kind of data set: Protac activity at CRBN/IRAK3 in LPS-induced human THP1 cells assessed as induction of IRAK3 degradation after 16 hrs by Western blot analysis. The following applies: thp-1. Format: cell-based.
Target sequence in this assay (Q96SW2 whole entry, one chain of several): as the sequence (Q96SW2 whole entry, looked up, one chain of several) above
For data set [10] the target is unchanged. Kind of data set: Protac activity at CRBN/IRAK3 in LPS-induced human THP1 cells assessed as induction of IRAK3 degradation after 16 hrs by Western blot analysis relative to control. Format: cell-based. As to conditions: THP-1.
Target sequence in this assay (Q96SW2 whole entry, looked up, one chain of several): as above

Molecules are shown by their SMILES.

T4 sequence (P40337 whole entry, looked up, one chain of several): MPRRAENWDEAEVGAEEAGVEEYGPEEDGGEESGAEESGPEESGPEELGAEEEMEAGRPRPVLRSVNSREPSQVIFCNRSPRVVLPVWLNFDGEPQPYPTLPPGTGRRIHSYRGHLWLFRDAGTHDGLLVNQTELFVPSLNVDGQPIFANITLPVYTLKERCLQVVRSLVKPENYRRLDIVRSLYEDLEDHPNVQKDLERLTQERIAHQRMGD
Protein cereblon, sequence (Q96SW2 whole entry): as the sequence (Q96SW2 whole entry, looked up, one chain of several) above

For `CC(C)c1ccn2ncnc(N[C@H]3CC[C@@H](N4CCN(C(=O)CCC(=O)NCCOCCOCCNc5cccc6c5C(=O)N(C5CCC(=O)NC5=O)C6=O)CC4)CC3)c12` (stereo partly specified), the Activity in data set [1] was determined as 17%; in [5], 13%. The molecule further yielded a logD in [2] of 2.3. In addition, the IC50 in data set [3] is 0.01 µM; in data set [4] it was 4.9 µM.

For the molecule `Cc1ncsc1-c1ccc(CNC(=O)[C@@H]2C[C@@H](O)CN2C(=O)[C@@H](NC(=O)COCCOCCOCCOCCNC(=O)CCC(=O)N2CCN([C@H]3CC[C@@H](Nc4ncnn5ccc(C(C)C)c45)CC3)CC2)C(C)(C)C)cc1`, the Activity in data set [6] and in [7] was 0% throughout. The molecule further returned a logD in data set [2] of 3. Besides, the IC50 in [3] was 0.019 µM; in data set [4] it was more than 1 µM.

Turning to `CC(C)c1ccn2ncnc(N[C@H]3CC[C@@H](N4CCN(C(=O)CCC(=O)NCCOCCOCCOCCNc5cccc6c5C(=O)N(C5CCC(=O)NC5=O)C6=O)CC4)CC3)c12` (stereo partly specified), the Activity is 42% in data set [1] and 34% in data set [5]. The logD in data set [2] stood at 2.1. The IC50 was 0.021 µM in [3] and more than 1 µM in data set [4].

For the molecule `Cc1ncsc1-c1ccc(CNC(=O)[C@@H]2C[C@@H](O)CN2C(=O)[C@@H](NC(=O)COCCOCCOCCOCCOCC(=O)N2CCN([C@H]3CC[C@@H](Nc4ncnn5ccc(C(C)C)c45)CC3)CC2)C(C)(C)C)cc1`, the Activity in [6] came to 21%; in data set [7], 67%. Also, the IC50 in data set [3] amounted to 0.051 µM.

Turning to `Cc1ncsc1-c1ccc(CNC(=O)[C@@H]2C[C@@H](O)CN2C(=O)[C@@H](NC(=O)CCCCCCNC(=O)CCC(=O)N2CCN([C@H]3CC[C@@H](Nc4ncnn5ccc(C(C)C)c45)CC3)CC2)C(C)(C)C)cc1`, the Activity in data set [6] and in [7] was 0% each time. In data set [2], this molecule returned a logD of more than 3. For the same molecule, the half-inhibitory concentration (IC50) in [3] was 0.006 µM; in [4], more than 1 µM.

With `CC(C)c1ccn2ncnc(N[C@H]3CC[C@@H](N4CCN(C(=O)CCC(=O)NCCOCCOCCOCCOCCNc5cccc6c5C(=O)N(C5CCC(=O)NC5=O)C6=O)CC4)CC3)c12` (stereo partly specified), the Activity in [1] stood at 85%; in data set [5] it was 55%. The molecule further had a logD in data set [2] of 2. Further, the IC50 in data set [3] is 0.022 µM; in [4], more than 1 µM.

On to `Cc1ncsc1-c1ccc(CNC(=O)[C@@H]2C[C@@H](O)CN2C(=O)[C@@H](NC(=O)COCCOCCOCCOCC(=O)N2CCN([C@H]3CC[C@@H](Nc4ncnn5ccc(C(C)C)c45)CC3)CC2)C(C)(C)C)cc1`, for which the Activity turned out to be 25% in data set [6] and 62% in data set [7]. This molecule also had a logD in data set [2] of 3.2. Further, the IC50 is 0.021 µM in data set [3] and more than 10 µM in [4].

In turn, `CC(C)c1ccn2ncnc(N[C@H]3CC[C@@H](N4CCN(C(=O)CCC(=O)N5CCC(CN6CCN(c7ccc8c(c7)C(=O)N(C7CCC(=O)NC7=O)C8=O)CC6)CC5)CC4)CC3)c12` (stereo partly specified) showed a logD in data set [2] of 3.1. The IC50 in data set [8] turned out to be 5.6 µM; in data set [3], 0.006 µM; in data set [4], 5.6 µM; on Protein cereblon, 1.2 µM. The DC50 in data set [9] is 0.052 µM. Besides, the Emax in [10] amounted to 74%.

Regarding `Cc1ncsc1-c1ccc(CNC(=O)[C@@H]2C[C@@H](O)CN2C(=O)[C@@H](NC(=O)CCCNC(=O)CCC(=O)N2CCN([C@H]3CC[C@@H](Nc4ncnn5ccc(C(C)C)c45)CC3)CC2)C(C)(C)C)cc1`, the Activity in [6] and in [7] was 0% in each case. Also, the logD in [2] was 3.7. The IC50 in data set [3] is 0.015 µM; in data set [4] it was more than 1 µM.

Take `CC(=O)N1CCN([C@H]2CC[C@H](Nc3ncnn4ccc(C(C)C)c34)CC2)CC1`: the IC50 in data set [3] came out at 0.031 µM.

In the case of `Cc1ncsc1-c1ccc(CNC(=O)[C@@H]2C[C@@H](O)CN2C(=O)[C@@H](NC(=O)COCCOCCNC(=O)CCC(=O)N2CCN([C@H]3CC[C@@H](Nc4ncnn5ccc(C(C)C)c45)CC3)CC2)C(C)(C)C)cc1`, the Activity is 0% in [6] and 20% in data set [7]. In data set [2], the logD turned out to be 3.3. Moreover, the IC50 in data set [3] was 0.024 µM; in data set [4], more than 10 µM.

For the molecule `CC(C)c1ccn2ncnc(N[C@H]3CC[C@@H](N4CCN(C(=O)CCOCCOCCOCCOCCOCCNc5cccc6c5C(=O)N(C5CCC(=O)NC5=O)C6=O)CC4)CC3)c12` (stereo partly specified), the Activity in data set [1] turned out to be 78%; in data set [5] it was 49%. In [2], this molecule had a logD of 2.1. The IC50 in [3] is 0.033 µM; in data set [4] it was more than 10 µM.

`Cc1ncsc1-c1ccc(CNC(=O)[C@@H]2C[C@@H](O)CN2C(=O)[C@@H](NC(=O)COCCOCCOCCNC(=O)CCC(=O)N2CCN([C@H]3CC[C@@H](Nc4ncnn5ccc(C(C)C)c45)CC3)CC2)C(C)(C)C)cc1`: the Activity in data set [6] and in data set [7] was 0% in each case. In data set [2], the log distribution coefficient (logD) was determined as 3.1. The IC50 in data set [3] was 0.025 µM; in data set [4], more than 1 µM.

For the molecule `CC(C)c1ccn2ncnc(N[C@H]3CC[C@@H](N4CCN(C(=O)CCOCCOCCOCCOCCNc5cccc6c5C(=O)N(C5CCC(=O)NC5=O)C6=O)CC4)CC3)c12` (stereo partly specified), the Activity in data set [1] is 48%; in data set [5], 27%. Moreover, in data set [2], the logD came out at 2.2. The figures for the IC50 in [3] and in data set [4] were 0.05 µM and more than 10 µM, respectively.

Take `CC(C)c1ccn2ncnc(N[C@H]3CC[C@@H](N4CCN(C(=O)CCOCCOCCOCCNc5cccc6c5C(=O)N(C5CCC(=O)NC5=O)C6=O)CC4)CC3)c12` (stereo partly specified): the results for the Activity in data set [1] and in [5] were 24% and 21%, respectively. For the same molecule, the logD in [2] was determined as 2.3. The concentration for half-maximal inhibition (IC50) in data set [3] is 0.034 µM; in data set [4], 7.8 µM.

With `CC(C)c1ccn2ncnc(N[C@H]3CC[C@@H](N4CCN(C(=O)CCC(=O)NCCCCNc5cccc6c5C(=O)N(C5CCC(=O)NC5=O)C6=O)CC4)CC3)c12` (stereo partly specified), the Activity in data set [1] and in [5] was 0% throughout. The same molecule gave a logD in data set [2] of 2.9. For the same molecule, the concentration for half-maximal inhibition (IC50) in [3] is 0.013 µM; in data set [4], more than 1 µM.

For the molecule `CC(C)c1ccn2ncnc(N[C@H]3CC[C@@H](N4CCN(C(=O)CCC(=O)NCCCCCCNc5cccc6c5C(=O)N(C5CCC(=O)NC5=O)C6=O)CC4)CC3)c12` (stereo partly specified), the Activity in data set [1] and in data set [5] was 0% in each case. The log distribution coefficient (logD) in data set [2] turned out to be 3.7. For the same molecule, the IC50 in data set [3] amounted to 0.021 µM; in data set [4], 2.6 µM.

As to `Cc1ncsc1-c1ccc(CNC(=O)[C@@H]2C[C@@H](O)CN2C(=O)[C@@H](NC(=O)COCCOCCOCCOCCOCCOCC(=O)N2CCN([C@H]3CC[C@@H](Nc4ncnn5ccc(C(C)C)c45)CC3)CC2)C(C)(C)C)cc1`, the figures for the Activity in data set [6] and in data set [7] were 20% and 43%, respectively. This molecule showed a logD in [2] of 2.8. Further, the results for the IC50 in [3] and in data set [4] were 0.033 µM and more than 10 µM, respectively.

These data come from ChEMBL document CHEMBL4725370, “Discovery of Proteolysis-Targeting Chimera Molecules that Selectively Degrade the IRAK3 Pseudokinase” (J Med Chem, 2020).
